How the values were obtained:
Assay type in all cases: in vivo, mice (C57BL/6)
[1] = test system: model animals with acute colitis induced by TNBS; assay: Acute colitis induced by TNBS in mice, secondary experiment (extract-based and fraction-based): weight change, colon length, macroscopic score; conditions: TNBS-treated mice, percentage to normal group
Method: All the mice were bred under the controlled environmental conditions of 50±10% of humidity at a temperature of 20° C. to 22° C., and the lighting was provided by repeatedly turning on for 12 hours followed by turning off for 12 hours. A feed for a standard experiment (Samyang, Korea) was used as a feed, and ad libitum access to water was allowed. In all experiments, each group consisted of 6 mice. […] Meanwhile, for the normal group, 0.1 mL of normal saline solution was orally administered. Subsequently, from the following day, the sample dissolved in normal saline solution was orally administered at a predetermined volume once daily for 3 days. On the following day after completing the sample administration, the experimental animals were suffocated to death with carbon dioxide, and the colon from the appendix to the region immediately before the anus was removed from the colon region. In this case, the experiments, where an ethanol extract of Anemarrhena asphodeloides Bunge, an ethanol extract of Coptis chinensis, a combined extract of the ethanol extract of Anemarrhena asphodeloides Bunge and the ethanol extract of Coptis chinensis, and a combined extract of a water extract of Anemarrhena asphodeloides Bunge and a water extract of Coptis chinensis were used as drug samples (hereinafter, “extract-based experiment”), and the experiments, where a butanol-soluble fraction of the ethanol extract of Anemarrhena asphodeloides Bunge, a butanol-soluble fraction of the ethanol extract of Coptis chinensis, and a combined extract of the butanol-soluble fraction of the ethanol extract of Anemarrhena asphodeloides Bunge and the butanol-soluble fraction of the ethanol extract of Coptis chinensis were used as drug samples (hereinafter, “fraction-based experiment”) were separately performed with time intervals, respectively. Considering the characteristics of animal experiments, it is reasonable that the effects of the drug samples on preventing or treating colitis be evaluated within each of the experiments and that the normal group supplied with saline solution instead of a specific drug sample, for the experimental animals not treated with TNBS, be used as a standard. The sample administration to the model animals with colitis induced by TNBS was stopped, and on the following day, the weight of the experimental animals was measured were and then compared with their initial weight to calculate the change in the amount of weight. The scores on the removed colons were estimated by observing the appearances and the length of the colons according to the criteria (Hollenbach et al., the criteria on the levels of colon in 2005) listed in Table 3. In this case, as a positive control group, the group administered with Mesalazine® (Sigma) was used. Additionally, a portion of the content in the colon was collected to analyze the intestinal microorganisms, and then stored in a freezer maintained at −80° C. From the tissues of colon, the content in the colon was completely removed and then the tissues of colon were washed with normal saline solution.

[2] = test system: model animals with acute colitis induced by TNBS; assay: Acute colitis induced by TNBS in mice, primary experiment: weight change, colon appearance score, colon length; conditions: TNBS-treated mice, 10 mg/kg orally once daily for 3 days, percentage to normal group (saline, no TNBS)
Method: All the mice were bred under the controlled environmental conditions of 50±10% of humidity at a temperature of 20° C. to 22° C., and the lighting was provided by repeatedly turning on for 12 hours followed by turning off for 12 hours. A feed for a standard experiment (Samyang, Korea) was used as a feed, and ad libitum access to water was allowed. In all experiments, each group consisted of 6 mice. […] Meanwhile, for the normal group, 0.1 mL of normal saline solution was orally administered. Subsequently, from the following day, the sample dissolved in normal saline solution was orally administered at a predetermined volume once daily for 3 days. On the following day after completing the sample administration, the experimental animals were suffocated to death with carbon dioxide, and the colon from the appendix to the region immediately before the anus was removed from the colon region. In this case, as a drug sample, the experiments using the butanol-soluble fraction of the Anemarrhena asphodeloides Bunge extract, mangiferin, and a combined extract were separately performed with time intervals, respectively, and the effects of the drug samples on preventing or treating colitis were reasonably analyzed based on the group supplied with normal saline solution instead of a specific drug in the model animals not treated with TNBS, for each of the experiments. The sample administration to the model animals with colitis induced by TNBS was stopped, and on the following day, the weight of the experimental animals was measured, and the measured weight was compared with the initial weight to calculate the amount of change in weight. The scores about the removed colons were estimated by observing the appearances and the length of the colons according to the following criteria (Hollenbach, et al., the criteria about the colitis level in 2005) as listed in Table 1. In this case, as a positive control group, the group administered with Mesalazine® (Sigma) was used. […]

TNF-α = TNF-α expression in colon tissue (ELISA), TNBS acute colitis, primary experiment; conditions: TNBS-treated mice, 10 mg/kg orally once daily for 3 days, percentage to normal group
Method: (§1) Among the experimental groups, one group was set as a normal group, and the experimental animals in other groups were induced with acute colitis by 2,4,6-trinitrobenzenesulfonic acid (TNBS). In detail, after lightly anesthetizing the experimental animals with ether, 0.1 mL of the solution prepared by mixing 2.5 g of 2,4,6-Trinitrobenzene sulfonic acid (NBS) solution with 50% ethanol was injected into the colon through the anus using a syringe having 1 mL volume and an oval point, respectively; the syringe was vertically picked up, and then, maintained for 30 seconds to induce inflammation. Meanwhile, for the normal group, 0.1 mL of normal saline solution was orally administered. Subsequently, from the following day, the sample dissolved in normal saline solution was orally administered at a predetermined volume once daily for 3 days. […] In this case, as a drug sample, the experiments using the butanol-soluble fraction of the Anemarrhena asphodeloides Bunge extract, mangiferin, and a combined extract were separately performed with time intervals, respectively, and the effects of the drug samples on preventing or treating colitis were reasonably analyzed based on the group supplied with normal saline solution instead of a specific drug in the model animals not treated with TNBS, for each of the experiments. […]

IL-6 = IL-6 expression in colon tissue (ELISA), TNBS acute colitis, primary experiment; conditions: TNBS-treated mice, 10 mg/kg orally once daily for 3 days, percentage to normal group
Method: as §1

Myeloperoxidase (MPO) [3] = assay: MPO activity in colon tissue (ELISA kit), TNBS acute colitis, secondary experiment; conditions: TNBS-treated mice, percentage to normal group
Method: Among the experimental groups, one group was set as a normal group, and the experimental animals in other groups were induced with acute colitis by 2,4,6-trinitrobenzenesulfonic acid (TNBS). In detail, after lightly anesthetizing the experimental animals with ether, 0.1 mL of the solution prepared by mixing 2.5 g of 2,4,6-Trinitrobenzene sulfonic acid (NBS) solution with 50% ethanol was injected into the colon through the anus using a syringe having 1 mL volume and an oval point, respectively; the syringe was vertically picked up, and then, maintained for 30 seconds to induce inflammation. Meanwhile, for the normal group, 0.1 mL of normal saline solution was orally administered. Subsequently, from the following day, the sample dissolved in normal saline solution was orally administered at a predetermined volume once daily for 3 days. On the following day after completing the sample administration, the experimental animals were suffocated to death with carbon dioxide, and the colon from the appendix to the region immediately before the anus was removed from the colon region. In this case, the experiments, where an ethanol extract of Anemarrhena asphodeloides Bunge, an ethanol extract of Coptis chinensis, a combined extract of the ethanol extract of Anemarrhena asphodeloides Bunge and the ethanol extract of Coptis chinensis, and a combined extract of a water extract of Anemarrhena asphodeloides Bunge and a water extract of Coptis chinensis were used as drug samples (hereinafter, “extract-based experiment”), and the experiments, where a butanol-soluble fraction of the ethanol extract of Anemarrhena asphodeloides Bunge, a butanol-soluble fraction of the ethanol extract of Coptis chinensis, and a combined extract of the butanol-soluble fraction of the ethanol extract of Anemarrhena asphodeloides Bunge and the butanol-soluble fraction of the ethanol extract of Coptis chinensis were used as drug samples (hereinafter, “fraction-based experiment”) were separately performed with time intervals, respectively. Considering the characteristics of animal experiments, it is reasonable that the effects of the drug samples on preventing or treating colitis be evaluated within each of the experiments and that the normal group supplied with saline solution instead of a specific drug sample, for the experimental animals not treated with TNBS, be used as a standard.
100 mg of colon tissues were homogenized after adding 200 μL of lysis buffer thereto. The homogenized colon tissues were centrifuged at 4° C. at a rate of 13000 rpm for 15 minutes, the supernatant therefrom was recovered, and the MPO activity was measured using a mouse MPO assay ELISA kit (Hbt HK210, USA). 100 μL of the supernatant was added into a 96-well plate and reacted at room temperature for 1 hour. Upon completion of the reaction, the plate was emptied by overturning, repeatedly washed three times with 200 μL of washing buffer, added with 100 μL of diluted tracer, and then the reaction was allowed to perform at room temperature for 1 hour. Upon completion of the reaction, the plate was emptied by overturning, and each well of the plate was washed using 200 μL of washing buffer. After repeatedly performing the washing process three times using 200 μL of washing buffer, 100 μL of diluted streptavidin-peroxidase conjugate was added thereto, and the reaction was allowed to perform at room temperature for 1 hour. Upon completion of the reaction, the plate was emptied by overturning, and each well of the plate was washed with 200 μL of washing buffer. After repeatedly washing three times using 200 μL of washing buffer, 100 μL of TMB substrate solution was added thereto, the plate was wrapped with an aluminum foil to block out the light, and the reaction was performed at room temperature for 30 minutes. Subsequently, 100 μL of a stop solution was added to terminate the reaction, and the absorbance was measured at 450 nm using an ELISA reader.

IL-10 = IL-10 expression in colon tissue (ELISA), TNBS acute colitis, primary experiment; conditions: TNBS-treated mice, 10 mg/kg orally once daily for 3 days, percentage to normal group
Method: as §1

Myeloperoxidase (MPO) [4] = assay: MPO activity in colon tissue (ELISA kit), TNBS acute colitis, primary experiment; conditions: TNBS-treated mice, 10 mg/kg orally once daily for 3 days, percentage to normal group
Method: Among the experimental groups, one group was set as a normal group, and the experimental animals in other groups were induced with acute colitis by 2,4,6-trinitrobenzenesulfonic acid (TNBS). In detail, after lightly anesthetizing the experimental animals with ether, 0.1 mL of the solution prepared by mixing 2.5 g of 2,4,6-Trinitrobenzene sulfonic acid (NBS) solution with 50% ethanol was injected into the colon through the anus using a syringe having 1 mL volume and an oval point, respectively; the syringe was vertically picked up, and then, maintained for 30 seconds to induce inflammation. Meanwhile, for the normal group, 0.1 mL of normal saline solution was orally administered. […] In this case, as a drug sample, the experiments using the butanol-soluble fraction of the Anemarrhena asphodeloides Bunge extract, mangiferin, and a combined extract were separately performed with time intervals, respectively, and the effects of the drug samples on preventing or treating colitis were reasonably analyzed based on the group supplied with normal saline solution instead of a specific drug in the model animals not treated with TNBS, for each of the experiments.
100 mg of colon tissues were homogenized after adding 200 μL of lysis buffer thereto. […] Subsequently, 100 μL of a stop solution was added to terminate the reaction, and the absorbance was measured at 450 nm using an ELISA reader.

IL-1β = IL-1β expression in colon tissue (ELISA), TNBS acute colitis, primary experiment; conditions: TNBS-treated mice, 10 mg/kg orally once daily for 3 days, percentage to normal group
Method: as §1

[5] = extract-based experiment, 10 mg/kg orally once daily for 3 days
[6] = extract-based experiment, 20 mg/kg orally once daily for 3 days
[7] = extract-based experiment, 50 mg/kg orally once daily for 3 days
[8] = fraction-based experiment, 10 mg/kg orally once daily for 3 days
[9] = fraction-based experiment, 20 mg/kg orally once daily for 3 days
[10] = fraction-based experiment, 50 mg/kg orally once daily for 3 days

In the case of `Nc1ccc(O)c(C(=O)O)c1` [Mesalazine ®, Mesalazine], the Body weight [1, 5] is reported as 59.46%, the Colon length [1, 5] is reported as 89.06% and the Macroscopic score [1, 5] is reported as 420%. For the same compound, the Body weight [1, 6] was 78.38%, the Colon length [1, 6] was 90.63% and the Macroscopic score [1, 6] was 420%. For the same compound, the Body weight [1, 7] was 75.68%, the Colon length [1, 7] was 90.63% and the Macroscopic score [1, 7] was 450%. The Body weight [1, 8] was 59.46%, the Colon length [1, 8] was 90.48% and the Macroscopic score [1, 8] was 500%. It also gave a Body weight [1, 9] of 78.38%, a Colon length [1, 9] of 92.06% and a Macroscopic score [1, 9] of 500%. It also gave a Body weight [1, 10] of 75.68%, a Colon length [1, 10] of 92.06% and a Macroscopic score [1, 10] of 600%. It also gave a Body weight [2] of 93.2%, a Colon length [2] of 89.9% and a Macroscopic score [2] of 550.5%. The TNF-α (TNF-α) was 304.1%, the IL-6 (IL-6) was 190.0% and the MPO activity (Myeloperoxidase (MPO) [3]; [5]) was 360%. The MPO activity (Myeloperoxidase (MPO) [3]; [6]) was 360%, the MPO activity (Myeloperoxidase (MPO) [3]; [7]) was 390% and the MPO activity (Myeloperoxidase (MPO) [3]; [8]) was 300%. It also gave an MPO activity (Myeloperoxidase (MPO) [3]; [9]) of 300%, an MPO activity (Myeloperoxidase (MPO) [3]; [10]) of 317% and an IL-10 (IL-10) of 53.1%. The MPO activity (Myeloperoxidase (MPO) [4]) was 1111.6% and the IL-1β (IL-1β) was 618.4%.

Source: patent US10751381B2, “Composition for preventing, relieving or treating colitis, containing complex extracts” (UNIVERSITY-INDUSTRY COOPERATION GROUP OF KYUNG HEE …, priority 2013, dated 2020)
